Results taken from US11760722B2 (priority 2022, dated 2023).
Several values for one entry are separate records, joined by “and”; a condition that tells them apart may be missing. Equal entries are not always repeated. Where two headings read alike, the source gives them in different places.

Tests used:
SARS-CoV-2 replicon = assay: microbe, parasite or virus in culture; format: cell-based; conditions: read-out: Replicon EC50
COVID-19 WT Mpro = target: T1, COVID-19 WT Mpro (Severe acute respiratory syndrome coronavirus 2, UniProt P0DTD1); assay: biochemical; conditions: WT Mpro 25 nM, substrate 25 μM, 30 min pre-incubation; several values in a cell = repeat determinations
T1 construct: The C-His6-tagged COVID-19 WT Mpro (NC_045512); His6 (C); host or cells: E. coli

[1] = tested on: human coronavirus (HCoV) 229E; assay: microbe, parasite or virus in culture; format: cell-based, human coronavirus 229E; conditions: unidentified human coronavirus, 72 h, MRCS cells, HCoV 229E, 3 days, CellTiter Glo; read-out: 229E CPE EC50
Method: Test compounds were provided by the sponsor. Reference compound remdesivir was provided by WuXi AppTec. Compounds were assayed at 8 concentrations (to be defined by sponsor), in duplicate wells.
MRCS cells were obtained from the ATCC, and maintained in the Minimum Essential Medium supplemented with 10% FBS, 1% L-glutamine, 1% NEAA and 1% penicillin-streptomycin. Minimum Essential Medium supplemented with 5% FBS, 1% L-glutamine, 1% NEAA and 1% penicillin-streptomycin was used as the assay medium.
Cells were seeded in 96 well plates, in 100 μl per well of assay medium, and cultured at 37° C. and 5% CO2 overnight. Next day, test compound was diluted with assay medium and then added into the cells, 50 μl per well. Then 50 μl per well of assay medium diluted virus was added. The final volume of the cell culture was 200 μl per well. […] The CPE were measured by CellTiter Glo following the manufacturer's manual. The antiviral activity of compounds was calculated based on the protection of the virus-induced CPE at each concentration normalized by the virus control.
EC50 and CC50 values were calculated using the GraphPad Prism software using the nonlinear regression model of log(inhibitor) vs. response—Variable slope (four parameters).

[2] = Severe acute respiratory syndrome coronavirus 2, Huh-7, 24 h

| Structure (SMILES) | EC50 (SARS-CoV-2 replicon; [2]) [nM] | IC50 (COVID-19 WT Mpro) | EC50 [1] [nM] | EC50 (SARS-CoV-2 replicon) [nM] |
| --- | --- | --- | --- | --- |
| CC1(C)[C@@H]2[C@@H](C(=O)N[C@H](C#N)C[C@@H]3CCNC3=O)N(C(=O)[C@@H]3CCCN3C(=O)C(F)(F)F)C[C@@H]21 [Compound 5] | > 30000 | > 30000 nM |  |  |
| CC1(C)[C@@H]2[C@@H](C(=O)N[C@H](C#N)C[C@@H]3CCNC3=O)N(C(=O)[C@@H]3CCN3C(=O)C(F)(F)F)C[C@@H]21 [Compound 6] | > 30000 | 17300 nM |  |  |
| COC(=O)N(C(=O)C(F)(F)F)[C@H](C(=O)N1C[C@H]2[C@@H]([C@H]1C(=O)N[C@H](C#N)C[C@@H]1CCNC1=O)C2(C)C)C(C)(C)C [Compound 8] | 3110 | > 30000 nM |  |  |
| CC1(C)[C@@H]2[C@@H](C(=O)N[C@@H](C[C@@H]3CCNC3=O)C(=O)c3nc4ccccc4s3)N(C(=O)[C@@H]3CCCN3C(=O)C(F)(F)F)C[C@@H]21 [Compound 10] | 22700 | > 30000 nM |  |  |
| CC1(C)[C@@H]2[C@@H](C(=O)N[C@@H](C[C@@H]3CCNC3=O)C(=O)c3nc4ccccc4s3)N(C(=O)[C@@H]3CCN3C(=O)C(F)(F)F)C[C@@H]21 [Compound 11] | 25500 | 11000 nM |  |  |
| CC(C)(C)[C@H](NC(=O)[C@@H](NC(=O)c1cnccn1)C1CCCCC1)C(=O)N1C[C@H]2[C@@H]([C@H]1C(=O)N[C@H](C#N)C[C@@H]1CCNC1=O)C2(C)C [Compound 13] | 1630 | 66 nM and 256 nM | 9820 | 1920 |
| CC(C)(C)[C@H](NC(=O)[C@H](NC(=O)c1cnccn1)C1CCCCC1)C(=O)N1C[C@H]2[C@@H]([C@H]1C(=O)N[C@H](C#N)C[C@@H]1CCNC1=O)C2(C)C [Compound 14] | > 30000 | > 30000 nM |  |  |
| CC(C)(C)[C@H](NC(=O)C(F)(F)F)C(=O)N1C[C@H]2[C@@H]([C@H]1C(=O)N[C@H](C#N)Cc1cncnc1)C2(C)C [Compound 15] | > 30000 | > 30000 nM |  |  |
| CC(C)(C)OC(=O)N1C2CCC1CC(C(=O)N[C@H](C(=O)N1C[C@H]3[C@@H]([C@H]1C(=O)N[C@H](C#N)C[C@@H]1CCNC1=O)C3(C)C)C(C)(C)C)C2 (stereo partly drawn) [Compound 17] | 2640 | 704 nM | 7960 |  |
| CC(C)(C)[C@H](NC(=O)C1CC2CCC(C1)O2)C(=O)N1C[C@H]2[C@@H]([C@H]1C(=O)N[C@H](C#N)C[C@@H]1CCNC1=O)C2(C)C (stereo partly drawn) [Compound 19] | > 30000 | 3710 nM | > 30000 |  |
| CC(C)(C)[C@H](NC(=O)C1COC1)C(=O)N1C[C@H]2[C@@H]([C@H]1C(=O)N[C@H](C#N)C[C@@H]1CCNC1=O)C2(C)C [Compound 21] | > 30000 | 161 nM | > 30000 |  |
| CC(C)(C)[C@H](NC(=O)c1ccc2[nH]ncc2c1)C(=O)N1C[C@H]2[C@@H]([C@H]1C(=O)N[C@H](C#N)C[C@@H]1CCNC1=O)C2(C)C [Compound 24] | 3610 | 143 nM | 23400 |  |
| COC(C)(C)C(=O)N[C@H](C(=O)N1C[C@H]2[C@@H]([C@H]1C(=O)N[C@H](C#N)C[C@@H]1CCNC1=O)C2(C)C)C(C)(C)C [Compound 25] | 2340 | 161 nM | 2470 |  |
| CC(C)(C)[C@H](NC(=O)c1cc2ccccc2s1)C(=O)N1C[C@H]2[C@@H]([C@H]1C(=O)N[C@H](C#N)C[C@@H]1CCNC1=O)C2(C)C [Compound 26] | 2560 | 410 nM | 5860 |  |
| CC(C)(C)[C@H](NC(=O)c1cc2ccccc2[nH]1)C(=O)N1C[C@H]2[C@@H]([C@H]1C(=O)N[C@H](C#N)C[C@@H]1CCNC1=O)C2(C)C [Compound 28] | 2050 | 728 nM | 6120 |  |
| CC(C)(C)[C@H](NC(=O)c1ccc2cncn2c1)C(=O)N1C[C@H]2[C@@H]([C@H]1C(=O)N[C@H](C#N)C[C@@H]1CCNC1=O)C2(C)C [Compound 29] | > 30000 | 405 nM | > 30000 |  |
| CC(C)(C)[C@H](NC(=O)c1ccc2cc[nH]c2c1)C(=O)N1C[C@H]2[C@@H]([C@H]1C(=O)N[C@H](C#N)C[C@@H]1CCNC1=O)C2(C)C [Compound 42] | 2480 | 121 nM |  |  |
| CC(C)(C)[C@H](NC(=S)NC1CCCCC1)C(=O)N1C[C@H]2[C@@H]([C@H]1C(=O)N[C@H](C#N)C[C@@H]1CCNC1=O)C2(C)C [Compound 43] | 3210 | 1230 nM |  |  |
| CC(C)(C)[C@H](NC(=O)C1Cc2ccccc2N1)C(=O)N1C[C@H]2[C@@H]([C@H]1C(=O)N[C@H](C#N)C[C@@H]1CCNC1=O)C2(C)C (stereo partly drawn) [Compound 45] | 960 | 385 nM |  |  |
| CC(C)(C)[C@H](NC(=O)[C@H]1C[C@H]2CCCC[C@H]2N1)C(=O)N1C[C@H]2[C@@H]([C@H]1C(=O)N[C@H](C#N)C[C@@H]1CCNC1=O)C2(C)C [Compound 46] | > 30000 | 7500 nM |  |  |

| Structure (SMILES) | EC50 (SARS-CoV-2 replicon; [2]) [nM] | IC50 (COVID-19 WT Mpro) | EC50 [1] [nM] | EC50 (SARS-CoV-2 replicon) [nM] |
| --- | --- | --- | --- | --- |
| CC(C)(C)[C@H](NC(=O)N1CCOCC1)C(=O)N1C[C@H]2[C@@H]([C@H]1C(=O)N[C@H](C#N)C[C@@H]1CCNC1=O)C2(C)C [Compound 48] | 22000 | 224 nM |  |  |
| CC1(C)[C@@H]2[C@@H](C(=O)N[C@H](C#N)C[C@@H]3CCNC3=O)N(C(=O)[C@@H](NC(=O)C(F)(F)F)C34CC(C3)C4)C[C@@H]21 [Compound 50] | 270 | 60 nM |  |  |
| CC(C)(C)[C@H](NC(=O)c1cc2ccccn2n1)C(=O)N1C[C@H]2[C@@H]([C@H]1C(=O)N[C@H](C#N)C[C@@H]1CCNC1=O)C2(C)C [Compound 51] | 9540 | 9400 nM |  |  |
| CC(C)(C)[C@H](NC(=O)N1CCCCC1)C(=O)N1C[C@H]2[C@@H]([C@H]1C(=O)N[C@H](C#N)C[C@@H]1CCNC1=O)C2(C)C [Compound 55] | 6040 | 1050 nM |  |  |
| CC(C)(C)OC(=O)N1CCCC1(C)C(=O)N[C@H](C(=O)N1C[C@H]2[C@@H]([C@H]1C(=O)N[C@H](C#N)C[C@@H]1CCNC1=O)C2(C)C)C(C)(C)C (stereo partly drawn) [Compound 57] | 400 | 57 nM |  |  |
| CC(C)(C)[C@H](NC(=O)C(F)(F)Cl)C(=O)N1C[C@H]2[C@@H]([C@H]1C(=O)N[C@H](C#N)C[C@@H]1CCNC1=O)C2(C)C [Compound 141] | 4.8 |  | 68 | 7 |
| Cc1c(C)c(C)c(S(=O)(=O)N[C@H](C(=O)N2C[C@H]3[C@@H]([C@H]2C(=O)N[C@H](C#N)C[C@@H]2CCNC2=O)C3(C)C)C(C)(C)C)c(C)c1C [Compound 142] | 160 |  | 283 | 170 |
| CC(C)(C)[C@H](NC(=O)C1(C(F)(F)F)CC1)C(=O)N1C[C@H]2[C@@H]([C@H]1C(=O)N[C@H](C#N)C[C@@H]1CCNC1=O)C2(C)C [Compound 151] | 85 |  | 207 |  |
| CC(C)(C)[C@H](NC(=O)C#Cc1ccc(C(F)(F)F)cc1)C(=O)N1C[C@H]2[C@@H]([C@H]1C(=O)N[C@H](C#N)C[C@@H]1CCNC1=O)C2(C)C [Compound 154] | 180 |  | 511 |  |
| COc1cc(/C=C/C(=O)N[C@H](C(=O)N2C[C@H]3[C@@H]([C@H]2C(=O)N[C@H](C#N)C[C@@H]2CCNC2=O)C3(C)C)C(C)(C)C)cc(OC)c1 [Compound 157] | 320 |  | 6940 |  |
| CC(C)(C)[C@H](NC(=O)C=C(C(F)(F)F)C(F)(F)F)C(=O)N1C[C@H]2[C@@H]([C@H]1C(=O)N[C@H](C#N)C[C@@H]1CCNC1=O)C2(C)C [Compound 158] | > 10000 |  | > 30000 |  |
| CC(C)(C)[C@H](NC(=O)C(F)C(F)(F)F)C(=O)N1C[C@H]2[C@@H]([C@H]1C(=O)N[C@H](C#N)C[C@@H]1CCNC1=O)C2(C)C (stereo partly drawn) [Compound 159] | 30 |  | 134 |  |
| CC(C)=C(Cl)C(=O)N[C@H](C(=O)N1C[C@H]2[C@@H]([C@H]1C(=O)N[C@H](C#N)C[C@@H]1CCNC1=O)C2(C)C)C(C)(C)C [Compound 160] | 160 |  | 193 |  |
| CC(C)(C)[C@H](NC(=O)CC(F)(F)F)C(=O)N1C[C@H]2[C@@H]([C@H]1C(=O)N[C@H](C#N)C[C@@H]1CCNC1=O)C2(C)C [Compound 161] | 180 |  | 585 |  |
| CC(C)(C)[C@H](NC(=O)/C(F)=C(\F)C(F)(C(F)(F)F)C(F)(F)F)C(=O)N1C[C@H]2[C@@H]([C@H]1C(=O)N[C@H](C#N)C[C@@H]1CCNC1=O)C2(C)C [Compound 163] | > 10000 |  | 4630 |  |
| Cc1ccc(S(=O)(=O)N(C(=O)C(F)(F)F)[C@H](C(=O)N2C[C@H]3[C@@H]([C@H]2C(=O)N[C@H](C#N)C[C@@H]2CCNC2=O)C3(C)C)C(C)(C)C)cc1 [Compound 167] | 20 |  | 120 |  |
| Cc1cc(S(=O)(=O)N[C@H](C(=O)N2C[C@H]3[C@@H]([C@H]2C(=O)N[C@H](C#N)C[C@@H]2CCNC2=O)C3(C)C)C(C)(C)C)sc1Cl [Compound 168] | 41 |  | 116 |  |
| Cc1cc(S(=O)(=O)N[C@H](C(=O)N2C[C@H]3[C@@H]([C@H]2C(=O)N[C@H](C#N)C[C@@H]2CCNC2=O)C3(C)C)C(C)(C)C)sc1C [Compound 169] | 37 |  | 163 |  |
| CCc1ccc(S(=O)(=O)N[C@H](C(=O)N2C[C@H]3[C@@H]([C@H]2C(=O)N[C@H](C#N)C[C@@H]2CCNC2=O)C3(C)C)C(C)(C)C)s1 [Compound 170] | 38 |  | 140 |  |
